Results taken from the NIST ThermoML archive (doi:10.1021/je500050p).
± gives the expanded uncertainty stated by the source.

Experiments:
[1] = 101.33 kPa, Liquid, Vibrating tube method
[2] = activity coefficient (dimensionless); of the first substance listed, at infinite dilution; xn = mol fraction of the nth substance listed; conditions: 101 kPa, Liquid, Chromatography, x1 = 0

Structure (SMILES) | activity coefficient ([2]; 323.15 K) | activity coefficient ([2]; 333.15 K) | activity coefficient ([2]; 343.15 K) | activity coefficient ([2]; 353.15 K) | activity coefficient ([2]; 373.15 K) | also measured
CC1(C)[C@@H]2CC[C@@]1(CS(=O)(=O)[O-])C(=O)C2.CCCCCCCCCCCCCC[N+](CCCCCC)(CCCCCC)CCCCCC |  |  |  |  |  | mass density ([1]; 298.55 K): 963.8 ± 0.3 kg/m3; mass density ([1]; 313.45 K): 953.4 ± 0.3 kg/m3; mass density ([1]; 323.45 K): 946.1 ± 0.3 kg/m3; mass density ([1]; 333.25 K): 939.1 ± 0.3 kg/m3
CCCCCCCCCCCCCC[N+](CCCCCC)(CCCCCC)CCCCCC.C[C@H](O)C(=O)[O-] [N,N,N-trihexyl-1-tetradecanaminium (2S)-2-hydroxypropanoate] |  |  |  |  |  | mass density ([1]; 298.55 K): 894.8 ± 0.3 kg/m3; mass density ([1]; 313.45 K): 885.7 ± 0.3 kg/m3; mass density ([1]; 323.45 K): 879.9 ± 0.3 kg/m3; mass density ([1]; 333.25 K): 874.5 ± 0.3 kg/m3
CC(C)O [propan-2-ol] + CC1(C)[C@@H]2CC[C@@]1(CS(=O)(=O)[O-])C(=O)C2.CCCCCCCCCCCCCC[N+](CCCCCC)(CCCCCC)CCCCCC | 0.12 ± 0.03 | 0.2 | 0.32 ± 0.03 |  |  | 
c1ccncc1 [pyridine] + CC1(C)[C@@H]2CC[C@@]1(CS(=O)(=O)[O-])C(=O)C2.CCCCCCCCCCCCCC[N+](CCCCCC)(CCCCCC)CCCCCC | 0.32 ± 0.03 | 0.49 ± 0.04 | 0.68 ± 0.05 |  |  | 
c1ccncc1 [pyridine] + CCCCCCCCCCCCCC[N+](CCCCCC)(CCCCCC)CCCCCC.C[C@H](O)C(=O)[O-] | 0.34 ± 0.03 |  |  | 0.34 ± 0.03 | 0.34 ± 0.03 | 
ClC(Cl)(Cl)Cl [tetrachloromethane] + CC1(C)[C@@H]2CC[C@@]1(CS(=O)(=O)[O-])C(=O)C2.CCCCCCCCCCCCCC[N+](CCCCCC)(CCCCCC)CCCCCC | 0.35 ± 0.03 | 0.51 ± 0.04 | 0.75 ± 0.05 |  |  | 
ClC(Cl)(Cl)Cl [tetrachloromethane] + CCCCCCCCCCCCCC[N+](CCCCCC)(CCCCCC)CCCCCC.C[C@H](O)C(=O)[O-] | 0.24 ± 0.03 |  |  | 0.26 ± 0.03 | 0.29 ± 0.03 | 
c1ccsc1 [thiophene] + CC1(C)[C@@H]2CC[C@@]1(CS(=O)(=O)[O-])C(=O)C2.CCCCCCCCCCCCCC[N+](CCCCCC)(CCCCCC)CCCCCC | 0.28 ± 0.03 | 0.42 ± 0.04 | 0.56 ± 0.04 |  |  | 
c1ccsc1 [thiophene] + CCCCCCCCCCCCCC[N+](CCCCCC)(CCCCCC)CCCCCC.C[C@H](O)C(=O)[O-] | 0.28 ± 0.03 |  |  | 0.29 ± 0.03 | 0.3 ± 0.1 | 
Cc1ccccc1 [toluene] + CC1(C)[C@@H]2CC[C@@]1(CS(=O)(=O)[O-])C(=O)C2.CCCCCCCCCCCCCC[N+](CCCCCC)(CCCCCC)CCCCCC | 0.41 ± 0.03 | 0.63 ± 0.04 | 0.88 ± 0.06 |  |  | 
Cc1ccccc1 [toluene] + CCCCCCCCCCCCCC[N+](CCCCCC)(CCCCCC)CCCCCC.C[C@H](O)C(=O)[O-] | 0.46 ± 0.04 |  |  | 0.46 ± 0.04 | 0.48 ± 0.04 | 
ClC(Cl)Cl [trichloromethane] + CC1(C)[C@@H]2CC[C@@]1(CS(=O)(=O)[O-])C(=O)C2.CCCCCCCCCCCCCC[N+](CCCCCC)(CCCCCC)CCCCCC | 0.05 | 0.09 ± 0.03 | 0.15 ± 0.03 |  |  | 
ClC(Cl)Cl [trichloromethane] + CCCCCCCCCCCCCC[N+](CCCCCC)(CCCCCC)CCCCCC.C[C@H](O)C(=O)[O-] | 0.05 |  |  | 0.04 | 0.03 | 
CCN(CC)CC [triethylamine] + CC1(C)[C@@H]2CC[C@@]1(CS(=O)(=O)[O-])C(=O)C2.CCCCCCCCCCCCCC[N+](CCCCCC)(CCCCCC)CCCCCC | 0.84 ± 0.05 | 1.23 ± 0.08 | 1.55 ± 0.1 |  |  | 
CCCCCCCCCCC [undecane] + CC1(C)[C@@H]2CC[C@@]1(CS(=O)(=O)[O-])C(=O)C2.CCCCCCCCCCCCCC[N+](CCCCCC)(CCCCCC)CCCCCC | 1.62 ± 0.11 | 2.84 ± 0.19 | 4.32 ± 0.29 |  |  | 
CCCCCCCCCCC [undecane] + CCCCCCCCCCCCCC[N+](CCCCCC)(CCCCCC)CCCCCC.C[C@H](O)C(=O)[O-] | 1.67 ± 0.11 |  |  | 1.81 ± 0.12 | 1.75 ± 0.12 | 
